Tests used:
TYK2 = TYK2 (Homo sapiens (Human), UniProt P29597); test: Tyk2 radioactive kinase assay; type: biochemical; conditions: ATP 10 μM
Outline: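 Recombinant human TYK2 (Invitrogen) was mixed with 20 μM peptide substrate in a buffer of 20 mM Hepes pH 7.5, 10 mM MgCl2, 1 mM EGTA, 0.02% Brij35, 0.02 mg/mL BSA, 0.1 mM […], 2 mM DTT and 1% DMSO, and compounds in DMSO were added. Adding ^33P-ATP (10 μM ATP) started the reaction, which ran 120 min at room temperature. Mixtures were then spotted onto P81 ion-exchange paper, washed thoroughly in 0.75% phosphoric acid, and counted for radioactivity.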

JAK2 = JAK2 (Homo sapiens (Human), UniProt O60674); test: JAK2 radioactive kinase assay; type: biochemical; conditions: ATP 10 μM
Chain of JAK2 (O60674 whole entry): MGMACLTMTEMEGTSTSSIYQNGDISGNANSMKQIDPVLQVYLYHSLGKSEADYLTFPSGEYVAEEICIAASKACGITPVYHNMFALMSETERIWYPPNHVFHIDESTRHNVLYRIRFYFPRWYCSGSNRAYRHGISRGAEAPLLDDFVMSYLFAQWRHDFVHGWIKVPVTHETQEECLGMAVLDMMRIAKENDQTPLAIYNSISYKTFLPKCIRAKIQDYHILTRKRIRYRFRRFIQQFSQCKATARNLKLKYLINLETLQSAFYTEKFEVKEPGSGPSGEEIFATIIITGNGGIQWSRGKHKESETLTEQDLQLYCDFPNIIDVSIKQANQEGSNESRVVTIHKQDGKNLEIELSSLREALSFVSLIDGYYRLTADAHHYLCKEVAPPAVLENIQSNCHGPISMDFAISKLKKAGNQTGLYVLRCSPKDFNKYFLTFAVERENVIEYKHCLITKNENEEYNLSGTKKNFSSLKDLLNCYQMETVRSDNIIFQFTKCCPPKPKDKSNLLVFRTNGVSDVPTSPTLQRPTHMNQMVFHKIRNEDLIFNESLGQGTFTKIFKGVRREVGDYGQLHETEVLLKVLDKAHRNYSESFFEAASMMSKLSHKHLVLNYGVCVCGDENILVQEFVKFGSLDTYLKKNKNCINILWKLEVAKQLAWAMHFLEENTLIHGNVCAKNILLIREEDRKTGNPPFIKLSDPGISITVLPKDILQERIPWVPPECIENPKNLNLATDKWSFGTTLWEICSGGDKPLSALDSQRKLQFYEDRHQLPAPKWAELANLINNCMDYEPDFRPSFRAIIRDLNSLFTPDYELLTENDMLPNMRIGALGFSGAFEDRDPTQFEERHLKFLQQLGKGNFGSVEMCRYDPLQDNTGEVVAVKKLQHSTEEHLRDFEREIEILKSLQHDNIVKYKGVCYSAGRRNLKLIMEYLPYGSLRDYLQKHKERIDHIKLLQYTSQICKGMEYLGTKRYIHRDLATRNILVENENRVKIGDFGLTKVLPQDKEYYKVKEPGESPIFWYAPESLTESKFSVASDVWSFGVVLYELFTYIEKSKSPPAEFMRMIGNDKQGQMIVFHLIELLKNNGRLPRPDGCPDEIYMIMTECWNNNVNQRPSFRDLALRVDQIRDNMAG
Outline: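 Radiometric assay in Hepes pH 7.5, MgCl2, EGTA, Brij35, BSA, DTT, 1% DMSO, with 10 μM [33P]ATP, 120 min at room temp; P81 paper capture and counting. […]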

[1] = tested on: JAK2-pSTAT5 (GM-CSF induced pSTAT5); test: GM-CSF induced pSTAT5 in human PBMC; type: cell-based; conditions: 5 ng/mL GM-CSF
Procedure: Human PBMC are isolated from buffy coat and are stored frozen for assays as needed. Cells for assay are thawed and resuspended in complete media containing serum, then cells are diluted to 1.67 E6 cells/ml so that 120 ul per well is 200,000 cells. 15 ul of compound or DMSO is added to the well at the desired concentrations and incubated at 1 hr at 37 C. 15 ul of stimulus (final concentration of 1.7 ng/mL IL-12) is added for 30 minutes prior to pSTAT4 and total STAT4 analysis using cell lysates prepared and analyzed by MSD reagents as per manufacturer protocol. The final DMSO concentration of compound in the assay is 0.1%.
Cells are prepared for analysis as in the above procedure and 15 ul of GM-CSF (final concentration 5 ng/mL) is added for 20 minutes prior to pSTAT5 and total STAT5 analysis using cell lysates prepared and analyzed by MSD reagents as per manufacturer protocol. The final DMSO concentration of compound in the assay is 0.1%.

[2] = tested on: Tyk2-pSTAT4 (IL-12 induced pSTAT4); test: IL-12 induced pSTAT4 in human PBMC; type: cell-based; conditions: 1.7 ng/mL IL-12, 30 minutes
Outline: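 Thawed human PBMC (200,000 cells/well, serum-containing medium) preincubated with compound 1 hr at 37 C, 0.1% DMSO final. Stimulated with 1.7 ng/mL IL-12 (final) for 30 minutes; pSTAT4 and total STAT4 in lysates measured by MSD immunoassay.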

Chain of TYK2 (P29597 whole entry): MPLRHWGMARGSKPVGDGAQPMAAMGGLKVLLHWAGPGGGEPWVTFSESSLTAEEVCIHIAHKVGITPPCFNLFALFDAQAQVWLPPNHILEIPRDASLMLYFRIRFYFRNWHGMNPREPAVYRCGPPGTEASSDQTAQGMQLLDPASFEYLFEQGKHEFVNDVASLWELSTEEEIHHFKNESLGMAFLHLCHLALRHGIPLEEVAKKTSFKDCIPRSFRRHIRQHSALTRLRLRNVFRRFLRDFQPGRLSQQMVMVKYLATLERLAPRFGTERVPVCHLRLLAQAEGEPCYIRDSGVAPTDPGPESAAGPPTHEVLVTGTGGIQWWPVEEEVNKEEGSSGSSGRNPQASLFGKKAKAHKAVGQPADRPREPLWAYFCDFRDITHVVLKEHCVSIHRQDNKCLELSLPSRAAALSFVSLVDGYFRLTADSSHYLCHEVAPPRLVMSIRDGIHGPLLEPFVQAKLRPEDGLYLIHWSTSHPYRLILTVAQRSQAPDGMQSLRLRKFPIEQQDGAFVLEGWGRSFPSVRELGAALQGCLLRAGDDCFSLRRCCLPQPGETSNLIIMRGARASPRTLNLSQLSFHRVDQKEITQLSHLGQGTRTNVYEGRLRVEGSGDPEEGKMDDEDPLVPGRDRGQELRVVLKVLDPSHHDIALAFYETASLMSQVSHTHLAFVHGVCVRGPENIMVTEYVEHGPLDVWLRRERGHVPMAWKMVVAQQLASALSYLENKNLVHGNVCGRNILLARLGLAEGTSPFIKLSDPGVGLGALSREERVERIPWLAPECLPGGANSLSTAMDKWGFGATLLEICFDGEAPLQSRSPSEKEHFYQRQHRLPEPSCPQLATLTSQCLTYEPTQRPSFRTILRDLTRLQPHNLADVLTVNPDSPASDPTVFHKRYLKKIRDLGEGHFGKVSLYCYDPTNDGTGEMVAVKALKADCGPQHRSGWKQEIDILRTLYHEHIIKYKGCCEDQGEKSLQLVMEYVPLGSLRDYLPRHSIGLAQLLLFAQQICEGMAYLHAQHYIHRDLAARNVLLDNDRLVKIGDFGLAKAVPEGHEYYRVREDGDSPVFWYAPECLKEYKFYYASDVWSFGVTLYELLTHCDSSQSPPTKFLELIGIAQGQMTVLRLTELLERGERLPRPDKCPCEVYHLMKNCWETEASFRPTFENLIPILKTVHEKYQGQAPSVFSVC

| SMILES | Ki (TYK2) | Ki (JAK2) | EC50 ([1]; Homo sapiens, PBMC, 20 min) | EC50 ([2]; Homo sapiens, PBMC, 0.5 h) | EC50 ([1]; 20 minutes) | EC50 [2] | EC50 ([1]; 20 min) | EC50 ([2]; 0.5 h) |
| --- | --- | --- | --- | --- | --- | --- | --- | --- |
| N#Cc1cccc(F)c1-c1cc(-n2ccc(N3CCC(O)CC3)n2)c2c(n1)CNC2=O [I-56, 3-fluoro-2-(4-(3-(4-hydroxypiperidin-1-yl)-1H-pyrazol-1-yl)-5-oxo-6,7-dihydro-5H-pyrrolo[3,4-b]pyridin-2-yl)benzonitrile] | 0.1 to 10 nM | 10 to 100 nM | 100 to 2000 nM | 100 to 2000 nM |  |  |  |  |
| N#Cc1cccc(F)c1-c1cc(-n2ccc(N3CCC(N4CCOCC4)CC3)n2)c2c(n1)CNC2=O [I-59, 3-fluoro-2-(4-(3-(4-morpholinopiperidin-1-yl)-1H-pyrazol-1-yl)-5-oxo-6,7-dihydro-5H-pyrrolo[3,4-b]pyridin-2-yl)benzonitrile] | 0.1 to 10 nM | 0.1 to 10 nM |  |  | 100 to 2000 nM | 100 to 2000 nM |  |  |
| N#Cc1cccc(F)c1-c1cc(-n2ccc(NCCN3CCOCC3)n2)c2c(n1)CNC2=O [I-63, 3-fluoro-2-(4-(3-((2-morpholinoethyl)amino)-1H-pyrazol-1-yl)-5-oxo-6,7-dihydro-5H-pyrrolo[3,4-b]pyridin-2-yl)benzonitrile] | 0.1 to 10 nM | 10 to 100 nM |  |  |  |  | 100 to 2000 nM | 100 to 2000 nM |
| N#Cc1cccc(F)c1-c1cc(-n2ccc(N3CCC[C@@H](O)C3)n2)c2c(n1)CNC2=O [I-69, (R)-3-fluoro-2-(4-(3-(3-hydroxypiperidin-1-yl)-1H-pyrazol-1-yl)-5-oxo-6,7-dihydro-5H-pyrrolo[3,4-b]pyridin-2-yl)benzonitrile] | 0.1 to 10 nM | 10 to 100 nM | 100 to 2000 nM | 100 to 2000 nM |  |  |  |  |
| N#Cc1cccc(F)c1-c1cc(-n2ccc(N3CCC[C@H](O)C3)n2)c2c(n1)CNC2=O [I-70, (S)-3-fluoro-2-(4-(3-(3-hydroxypiperidin-1-yl)-1H-pyrazol-1-yl)-5-oxo-6,7-dihydro-5H-pyrrolo[3,4-b]pyridin-2-yl)benzonitrile] | 0.1 to 10 nM | 0.1 to 10 nM | 100 to 2000 nM | 100 to 2000 nM |  |  |  |  |
| C[C@@]1(O)CCCN(c2ccn(-c3cc(-c4c(F)cccc4C#N)nc4c3C(=O)NC4)n2)C1 [I-71, (R)-3-fluoro-2-(4-(3-(3-hydroxy-3-methylpiperidin-1-yl)-1H-pyrazol-1-yl)-5-oxo-6,7-dihydro-5H-pyrrolo[3,4-b]pyridin-2-yl)benzonitrile] | 0.009 to 0.1 nM | 10 to 100 nM | 100 to 2000 nM | 30 to 100 nM |  |  |  |  |
| C[C@]1(O)CCCN(c2ccn(-c3cc(-c4c(F)cccc4C#N)nc4c3C(=O)NC4)n2)C1 [I-72, (S)-3-fluoro-2-(4-(3-(3-hydroxy-3-methylpiperidin-1-yl)-1H-pyrazol-1-yl)-5-oxo-6,7-dihydro-5H-pyrrolo[3,4-b]pyridin-2-yl)benzonitrile] | 0.1 to 10 nM | 0.1 to 10 nM | > 2000 nM | 100 to 2000 nM |  |  |  |  |
| N#Cc1cccc(F)c1-c1cc(-n2ccc(N3CCC(O)C3)n2)c2c(n1)CNC2=O (centres unmarked) [I-76, 3-fluoro-2-(4-(3-(3-hydroxypyrrolidin-1-yl)-1H-pyrazol-1-yl)-5-oxo-6,7-dihydro-5H-pyrrolo[3,4-b]pyridin-2-yl)benzonitrile] | 0.009 to 0.1 nM | 0.1 to 10 nM | 100 to 2000 nM | 30 to 100 nM |  |  |  |  |
| N#Cc1cccc(F)c1-c1cc(-n2ccc(N3CC[C@@H](O)C3)n2)c2c(n1)CNC2=O [I-78, (R)-3-fluoro-2-(4-(3-(3-hydroxypyrrolidin-1-yl)-1H-pyrazol-1-yl)-5-oxo-6,7-dihydro-5H-pyrrolo[3,4-b]pyridin-2-yl)benzonitrile] | 0.1 to 10 nM | 10 to 100 nM | 100 to 2000 nM | 30 to 100 nM |  |  |  |  |
| N#Cc1cccc(F)c1-c1cc(-n2ccc(N3CCCOCC3)n2)c2c(n1)CNC2=O [I-83, 2-(4-(3-(1,4-oxazepan-4-yl)-1H-pyrazol-1-yl)-5-oxo-6,7-dihydro-5H-pyrrolo[3,4-b]pyridin-2-yl)-3-fluorobenzonitrile] | 0.1 to 10 nM | 10 to 100 nM | > 2000 nM | 100 to 2000 nM |  |  |  |  |
| N#Cc1cccc(F)c1-c1cc(-n2ccc(N3CCCC(N)(C(F)(F)F)C3)n2)c2c(n1)CNC2=O (centres unmarked) [I-84, 2-(4-(3-(3-amino-3-(trifluoromethyl)piperidin-1-yl)-1H-pyrazol-1-yl)-5-oxo-6,7-dihydro-5H-pyrrolo[3,4-b]pyridin-2-yl)-3-fluorobenzonitrile] | 0.009 to 0.1 nM | 0.1 to 10 nM | 100 to 2000 nM | 30 to 100 nM |  |  |  |  |
| N#Cc1cccc(F)c1-c1cc(-n2ccc(N3CCC[C@](O)(C(F)(F)F)C3)n2)c2c(n1)CNC2=O [I-88, (R)-3-fluoro-2-(4-(3-(3-hydroxy-3-(trifluoromethyl)piperidin-1-yl)-1H-pyrazol-1-yl)-5-oxo-6,7-dihydro-5H-pyrrolo[3,4-b]pyridin-2-yl)benzonitrile] | 0.009 to 0.1 nM | 10 to 100 nM | > 2000 nM | 100 to 2000 nM |  |  |  |  |
| N#Cc1cccc(F)c1-c1cc(-n2ccc(N3CCC[C@@](O)(C(F)(F)F)C3)n2)c2c(n1)CNC2=O [I-89, (S)-3-fluoro-2-(4-(3-(3-hydroxy-3-(trifluoromethyl)piperidin-1-yl)-1H-pyrazol-1-yl)-5-oxo-6,7-dihydro-5H-pyrrolo[3,4-b]pyridin-2-yl)benzonitrile] | 0.1 to 10 nM | 10 to 100 nM | > 2000 nM | 100 to 2000 nM |  |  |  |  |
| N#Cc1cccc(F)c1-c1cc(-n2ccc(N3CCCC(C(=O)O)C3)n2)c2c(n1)CNC2=O (centres unmarked) [I-91, 1-(1-(2-(2-cyano-6-fluorophenyl)-5-oxo-6,7-dihydro-5H-pyrrolo[3,4-b]pyridin-4-yl)-1H-pyrazol-3-yl)piperidine-3-carboxylic acid] | 0.1 to 10 nM | 10 to 100 nM | > 2000 nM | 100 to 2000 nM |  |  |  |  |

Further lines, with some results ahead:

| Ki (TYK2) | Ki (JAK2) | EC50 ([1]; Homo sapiens, PBMC, 20 min) | EC50 ([2]; Homo sapiens, PBMC, 0.5 h) | SMILES | EC50 ([1]; 20 minutes) | EC50 [2] | EC50 ([1]; 20 min) | EC50 ([2]; 0.5 h) |
| --- | --- | --- | --- | --- | --- | --- | --- | --- |
| 0.1 to 10 nM | 10 to 100 nM | > 2000 nM | 100 to 2000 nM | N#Cc1cccc(F)c1-c1cc(-n2ccc(N3CCOCC3)n2)c2c(n1)CNC2=O [I-4, 3-fluoro-2-(4-(3-morpholino-1H-pyrazol-1-yl)-5-oxo-6,7-dihydro-5H-pyrrolo[3,4-b]pyridin-2-yl)benzonitrile] |  |  |  |  |
| 0.1 to 10 nM | 0.1 to 10 nM | > 2000 nM | 100 to 2000 nM | CN1CCN(c2ccn(-c3cc(-c4c(F)cccc4C#N)nc4c3C(=O)NC4)n2)CC1 [I-6, 3-fluoro-2-(4-(3-(4-methylpiperazin-1-yl)-1H-pyrazol-1-yl)-5-oxo-6,7-dihydro-5H-pyrrolo[3,4-b]pyridin-2-yl)benzonitrile] |  |  |  |  |
| 0.1 to 10 nM | 100 to 1000 nM | 100 to 2000 nM | 100 to 2000 nM | CC(C)n1ccc(-c2cc(-c3c(F)cccc3C#N)nc3c2C(=O)NC3)n1 [I-57, 3-fluoro-2-(4-(1-isopropyl-1H-pyrazol-3-yl)-5-oxo-6,7-dihydro-5H-pyrrolo[3,4-b]pyridin-2-yl)benzonitrile] |  |  |  |  |
| 0.009 to 0.1 nM | 10 to 100 nM | 100 to 2000 nM | 100 to 2000 nM | CC1(O)CCCN(c2ccn(-c3cc(-c4c(F)cccc4C#N)nc4c3C(=O)NC4)n2)C1 (centres unmarked) [I-62, 3-fluoro-2-(4-(3-(3-hydroxy-3-methylpiperidin-1-yl)-1H-pyrazol-1-yl)-5-oxo-6,7-dihydro-5H-pyrrolo[3,4-b]pyridin-2-yl)benzonitrile] |  |  |  |  |
| 0.1 to 10 nM | 10 to 100 nM | 100 to 2000 nM | 30 to 100 nM | N#Cc1cccc(F)c1-c1cc(-n2ccc(N3CCCC(O)C3)n2)c2c(n1)CNC2=O (centres unmarked) [I-65, 3-fluoro-2-(4-(3-(3-hydroxypiperidin-1-yl)-1H-pyrazol-1-yl)-5-oxo-6,7-dihydro-5H-pyrrolo[3,4-b]pyridin-2-yl)benzonitrile] |  |  |  |  |
| 0.1 to 10 nM | 10 to 100 nM | 100 to 2000 nM | 30 to 100 nM | N#Cc1cccc(F)c1-c1cc(-n2ccc(N3CC[C@H](O)C3)n2)c2c(n1)CNC2=O [I-79, (S)-3-fluoro-2-(4-(3-(3-hydroxypyrrolidin-1-yl)-1H-pyrazol-1-yl)-5-oxo-6,7-dihydro-5H-pyrrolo[3,4-b]pyridin-2-yl)benzonitrile] |  |  |  |  |
| 0.1 to 10 nM |  | > 2000 nM | 30 to 100 nM | CO[C@H]1CN(c2ccn(-c3cc(-c4c(F)cccc4C#N)nc4c3C(=O)NC4)n2)C[C@H]1O [I-153, 3-fluoro-2-(4-(3-((3R,4S)-3-hydroxy-4-methoxypyrrolidin-1-yl)-1H-pyrazol-1-yl)-5-oxo-6,7-dihydro-5H-pyrrolo[3,4-b]pyridin-2-yl)benzonitrile] |  |  |  |  |

Reference: patent publication US10781204B2, “TYK2 inhibitors and uses thereof” (Nimbus Lakshmi, Inc., priority 2015, dated 2020)
